Here are results for 36 compounds from patent US6596718B1, “7-Morpholin-4yl-benzothiazole amide derivatives” (Hoffmann-La Roche Inc., priority 2001, dated 2003).

SMILES strings stand for the structures.

`COc1ccc(N2CCOCC2)c2sc(C(=O)NCCCCN3C(=O)c4ccccc4C3=O)nc12` [Example 33, 4-Methoxy-7-morpholin-4-yl-benzothiazole-2-carboxylic acid [4-(1,3-dioxo-1,3-dihydro-isoindol-2-yl)-butyl]-amide] returned a melting point of 114 to 118 °C. The result for `COc1ccc(N2CCOCC2)c2sc(C(=O)NCCN3C(=O)c4ccccc4C3=O)nc12` [Example 34, 4-Methoxy-7-morpholin-4-yl-benzothiazole-2-carboxylic acid [2-(1,3-dioxo-1,3-dihydro-isoindol-2-yl)-ethyl]-amide] reads 231 to 233 °C; that for `COc1ccc(N2CCOCC2)c2sc(C(=O)NCC3CCCCC3)nc12` [Example 35, 4-Methoxy-7-morpholin-4-yl-benzothiazole-2-carboxylic acid cyclohexylmethyl-amide], 150 to 151 °C. Turning to `COc1ccc(N2CCOCC2)c2sc(C(=O)NCC3Cc4ccccc4C(=O)N3)nc12` (stereo not drawn) [Example 36, 4-Methoxy-7-morpholin-4-yl-benzothiazole-2-carboxylic acid (1-oxo-1,2,3,4-tetrahydro-isoquinolin-3-ylmethyl)-amide], the melting point was in the range of 152 to 155 °C. `COc1ccccc1C(=O)NCCNC(=O)c1nc2c(OC)ccc(N3CCOCC3)c2s1` [Example 37, 4-Methoxy-7-morpholin-4-yl-benzothiazole-2-carboxylic acid [2-(2-methoxy-benzoylamino)-ethyl]-amide] came in with a melting point of 180 to 183 °C. In the case of `COc1ccc(N2CCOCC2)c2sc(C(=O)NCCc3ccccn3)nc12` [Example 38, 4-Methoxy-7-morpholin-4-yl-benzothiazole-2-carboxylic acid (2-pyridin-2-yl-ethyl)-amide] it was 184 to 185 °C; in that of `COc1ccc(N2CCOCC2)c2sc(C(=O)NCC(=O)c3ccccc3)nc12` [Example 39, 4-Methoxy-7-morpholin-4-yl-benzothiazole-2-carboxylic acid (2-oxo-2-phenyl-ethyl)-amide], 197 to 200 °C; in that of `COc1ccc(N2CCOCC2)c2sc(C(=O)NCCCc3ccccc3)nc12` [Example 40, 4-Methoxy-7-morpholin-4-yl-benzothiazole-2-carboxylic acid (3-phenyl-propyl)-amide], 147 °C. In the case of `COc1ccc(N2CCOCC2)c2sc(C(=O)NCC3CCCO3)nc12` (stereo not drawn) [Example 41, 4-Methoxy-7-morpholin-4-yl-benzothiazole-2-carboxylic acid (tetrahydro-furan-2-ylmethyl)-amide] it was 171 to 172 °C; in that of `COc1ccc(N2CCOCC2)c2sc(C(=O)NNC(=O)c3cccnc3)nc12` [Example 44, Nicotinic acid N′-(4-methoxy-7-morpholin-4-yl-benzothiazole-2-carbonyl)-hydrazide], 222 to 224 °C; in that of `COc1ccc(N2CCOCC2)c2sc(C(=O)NNC(=O)c3ccncc3)nc12` [Example 45, Isonicotinic acid N′-(4-methoxy-7-morpholin-4-yl-benzothiazole-2-carbonyl)-hydrazide], 171 to 174 °C.

Turning to `COc1ccc(N2CCOCC2)c2sc(C(=O)NNC(=O)c3ccccc3)nc12` [Example 46, 4-Methoxy-7-morpholin-4-yl-benzothiazole-2-carboxylic acid N′-benzoyl-hydrazide], the melting point is above 260 °C.

For the compound `COc1ccc(N2CCOCC2)c2sc(C(=O)NC(c3ccccc3)c3ccccc3)nc12` [Example 47, 4-Methoxy-7-morpholin-4-yl-benzothiazole-2-carboxylic acid benzhydryl-amide], the melting point lay within 166 to 168 °C. The result for `COc1ccc(N2CCOCC2)c2sc(C(=O)NCCc3ccncc3)nc12` [Example 48, 4-Methoxy-7-morpholin-4-yl-benzothiazole-2-carboxylic acid (2-pyridin-4-yl-ethyl)-amide] reads 185 to 188 °C; that for `COc1ccc(N2CCOCC2)c2sc(C(=O)NCCc3cccc(NC(C)=O)c3)nc12` [Example 50, 4-Methoxy-7-morpholin-4-yl-benzothiazole-2-carboxylic acid [2-(3-acetylamino-phenyl)-ethyl]-amide], 165 to 166 °C. In the case of `COc1ccc(N2CCOCC2)c2sc(C(=O)NNc3ccccc3)nc12` [Example 51, 4-Methoxy-7-morpholin-4-yl-benzothiazole-2-carboxylic acid N′-phenyl-hydrazide] it was 226 to 227 °C; in that of `COc1ccc(N2CCOCC2)c2sc(C(=O)NNC(=O)c3ccccn3)nc12` [Example 52, Pyridine-2-carboxylic acid N′-(4-methoxy-7-morpholin-4-yl-benzothiazole-2-carbonyl)-hydrazide], 225 to 226 °C; in that of `COc1ccc(N2CCOCC2)c2sc(C(=O)Nc3ccncc3)nc12` [Example 53, 4-Methoxy-7-morpholin-4-yl-benzothiazole-2-carboxylic acid pyridin-4-ylamide], 206 to 207 °C. The result for `COc1cc(OC)cc(C(=O)NNC(=O)c2nc3c(OC)ccc(N4CCOCC4)c3s2)c1` [Example 56, 3,5-Dimethoxy-benzoic acid N′-(4-methoxy-7-morpholin-4-yl-benzothiazole-2-carbonyl)-hydrazide] reads 146 to 148 °C; that for `COc1ccc(N2CCOCC2)c2sc(C(=O)NCCc3ccccc3F)nc12` [Example 58, 4-Methoxy-7-morpholin-4-yl-benzothiazole-2-carboxylic acid [2-(2-fluoro-phenyl)-ethyl]-amide], 151 to 153 °C.

With `COc1ccc(N2CCOCC2)c2sc(C(=O)NCCc3cccc(C(F)(F)F)c3)nc12` [Example 60], the melting point lay in the range of 106 to 108 °C.

In turn, `COc1ccc(N2CCOCC2)c2sc(C(=O)NCCc3ccc(C)cc3)nc12` [Example 61, 4-Methoxy-7-morpholin-4-yl-benzothiazole-2-carboxylic acid (2-p-tolyl-ethyl)-amide] showed a melting point of 136 to 138 °C. The result for `COc1ccc(C(=O)CNC(=O)c2nc3c(OC)ccc(N4CCOCC4)c3s2)cc1` [Example 66, 4-Methoxy-7-morpholin-4-yl-benzothiazole-2-carboxylic acid [2-(4-methoxy-phenyl)-2-oxo-ethyl]-amide] reads 176 to 178 °C; that for `COc1ccc(N2CCOCC2)c2sc(C(=O)NC(c3ccccc3)c3ccccn3)nc12` (stereo not drawn) [Example 67, 4-Methoxy-7-morpholin-4-yl-benzothiazole-2-carboxylic acid (phenyl-pyridin-2-yl-methyl)-amide], 219 to 221 °C. The result for `COc1ccc(CCNC(=O)c2nc3c(OC)ccc(N4CCOCC4)c3s2)cc1` [Example 68, 4-Methoxy-7-morpholin-4-yl-benzothiazole-2-carboxylic acid [2-(4-methoxy-phenyl)-ethyl]-amide] reads 69 to 71 °C; that for `COc1ccc(N2CCOCC2)c2sc(C(=O)NCc3csc4ccccc34)nc12` [Example 69, 4-Methoxy-7-morpholin-4-yl-benzothiazole-2-carboxylic acid (benzo[b]thiophen-3-ylmethyl)-amide], 187 to 189 °C; that for `COc1ccc(N2CCOCC2)c2sc(C(=O)NCc3ccc(C)o3)nc12` [Example 70, 4-Methoxy-7-morpholin-4-yl-benzothiazole-2-carboxylic acid (5-methyl-furan-2-ylmethyl)-amide], 173 to 174 °C. In the case of `COc1ccc(N2CCOCC2)c2sc(C(=O)NCCc3ccccc3C)nc12` [Example 74, 4-Methoxy-7-morpholin-4-yl-benzothiazole-2-carboxylic acid (2-o-tolyl-ethyl)-amide] it was 129 to 131 °C; in that of `COc1ccc(N2CCOCC2)c2sc(C(=O)NCC(=O)c3ccc4c(c3)OCCO4)nc12` [Example 75, 4-Methoxy-7-morpholin-4-yl benzothiazole-2-carboxylic acid [2-(2,3-dihydro-benzo[1,4]dioxin-6-yl)-2-oxo-ethyl]-amide], 206 to 208 °C. As for `COc1ccc(N2CCOCC2)c2sc(C(=O)NCC(=O)c3sc4ccccc4c3C)nc12` [Example 76, 4-Methoxy-7-morpholin-4-yl-benzothiazole-2-carboxylic acid [2-(3-methyl-benzo[b]thiophen-2-yl)-2-oxo-ethyl]-amide], the melting point lay within 185 to 187 °C. For `COc1ccc(N2CCOCC2)c2sc(C(=O)NCC(=O)c3cccs3)nc12` [Example 78, 4-Methoxy-7-morpholin-4-yl-benzothiazole-2-carboxylic acid (2-oxo-2-thiophen-2-yl-ethyl)-amide], the melting point lay in the range of 171 to 173 °C. The result for `COc1ccc(N2CCOCC2)c2sc(C(=O)NCC(=O)c3ccsc3)nc12` [Example 79, 4-Methoxy-7-morpholin-4-yl-benzothiazole-2-carboxylic acid (2-oxo-2-thiophen-3-yl-ethyl)-amide] reads 229 to 232 °C; that for `COc1ccc(N2CCOCC2)c2sc(C(=O)NC(C)c3csc(C)n3)nc12` (stereo not drawn) [Example 80, 4-Methoxy-7-morpholin-4-yl-benzothiazole-2-carboxylic acid [1-(2-methyl-thiazol-4-yl)-ethyl]-amide], 174 to 175 °C. Turning to `COc1ccc(N2CCOCC2)c2sc(C(=O)Nc3ccc(C)nc3)nc12` [Example 82, 4-Methoxy-7-morpholin-4-yl-benzothiazole-2-carboxylic acid (6-methyl-pyridin-3-yl)-amide], the melting point lay within 145 to 147 °C. `COc1ccc(N2CCOCC2)c2sc(C(=O)NCCSc3nnc(N)s3)nc12` [Example 83, 4-Methoxy-7-morpholin-4-yl-benzothiazole-2-carboxylic acid [2-(5-amino-[1,3,4]thiadiazol-2-ylsulfanyl)-ethyl]-amide] had a melting point of 237 to 239 °C. Take `COc1ccc(N2CCOCC2)c2sc(C(=O)NC(C)Cc3cc4ccccc4o3)nc12` (stereo not drawn) [Example 84, 4-Methoxy-7-morpholin-4-yl-benzothiazole-2-carboxylic acid (2-benzofuran-2-yl-1-methyl-ethyl)-amide]: the melting point lay within 144 to 146 °C.
